Laboratory results published in ChEMBL document CHEMBL4414602, “Bipolaricins A-I, Ophiobolin-Type Tetracyclic Sesterterpenes from a Phytopathogenic Bipolaris sp. Fungus” (J Nat Prod, 2019).
Calls of active or inactive are those of the source. No cut-off for these calls is given here.

Columns and labels:
SW1990 = experiment: Cytotoxicity against human SW1990 cells by MTT assay; type: cell-based
A549 = experiment: Cytotoxicity against human A549 cells by MTT assay; type: cell-based
MDA-MB-231 = experiment: Cytotoxicity against human MDA-MB-231 cells by MTT assay; type: cell-based
RAW264.7 [1] = experiment: Cytotoxicity against mouse RAW264.7 cells at 40 uM by MTT assay; type: cell-based; settings: raw264.7, 40 µM
RAW264.7 [2] = experiment: Antiinflammatory activity in mouse RAW264.7 cells assessed as inhibition of LPS-induced nitric oxide production pretreated for 2 hrs followed by LPS challenge and measured after 12 hrs by Griess assay; type: functional, cell-based
HepG2 = experiment: Cytotoxicity against human HepG2 cells by MTT assay; type: cell-based
RAW264.7 [3] = experiment: Antiinflammatory activity in mouse RAW264.7 cells assessed as increase of LPS-induced IL-3 production at 5 to 10 uM pretreated for 2 hrs followed by LPS challenge and measured after 12 hrs by ELISA; type: functional, cell-based
[4] = target: T1, 3-hydroxy-3-methylglutaryl-coenzyme A reductase (Homo sapiens, UniProt P04035); experiment: Inhibition of human HMGR using HMGCoA as substrate measured after 15 mins in presence of NADPH by UV microplate reader analysis
T1 sequence (P04035 whole entry): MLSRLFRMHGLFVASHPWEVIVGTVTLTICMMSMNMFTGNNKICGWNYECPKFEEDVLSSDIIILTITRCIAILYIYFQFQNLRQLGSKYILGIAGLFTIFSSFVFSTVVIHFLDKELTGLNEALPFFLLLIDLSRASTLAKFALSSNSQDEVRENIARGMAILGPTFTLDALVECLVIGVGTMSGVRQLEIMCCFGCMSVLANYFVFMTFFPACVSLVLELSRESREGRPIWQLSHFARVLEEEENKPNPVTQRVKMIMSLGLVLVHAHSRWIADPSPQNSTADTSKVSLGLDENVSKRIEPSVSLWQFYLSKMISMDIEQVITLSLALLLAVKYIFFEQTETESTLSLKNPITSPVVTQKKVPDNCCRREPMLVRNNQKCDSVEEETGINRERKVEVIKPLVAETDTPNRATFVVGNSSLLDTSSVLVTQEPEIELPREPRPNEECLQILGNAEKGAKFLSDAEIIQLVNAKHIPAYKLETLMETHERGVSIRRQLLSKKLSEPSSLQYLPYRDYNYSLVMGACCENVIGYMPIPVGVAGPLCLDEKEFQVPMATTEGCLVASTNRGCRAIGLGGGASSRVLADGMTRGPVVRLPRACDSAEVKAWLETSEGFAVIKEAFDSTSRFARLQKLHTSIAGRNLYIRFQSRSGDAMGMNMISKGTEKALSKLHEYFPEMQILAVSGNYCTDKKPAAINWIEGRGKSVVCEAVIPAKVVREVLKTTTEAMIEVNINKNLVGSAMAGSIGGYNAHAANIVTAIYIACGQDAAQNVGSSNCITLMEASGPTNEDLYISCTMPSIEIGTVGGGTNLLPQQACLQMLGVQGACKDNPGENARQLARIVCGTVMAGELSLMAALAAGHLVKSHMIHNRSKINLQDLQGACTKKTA

RAW264.7 [5] = experiment: Antiinflammatory activity in mouse RAW264.7 cells assessed as inhibition of LPS-induced RANTES production at 5 to 10 uM pretreated for 2 hrs followed by LPS challenge and measured after 12 hrs by ELISA; type: functional, cell-based
RAW264.7 [6] = experiment: Antiinflammatory activity in mouse RAW264.7 cells assessed as inhibition of LPS-induced TNFalpha production at 5 to 10 uM pretreated for 2 hrs followed by LPS challenge and measured after 12 hrs by ELISA; type: functional, cell-based
RAW264.7 [7] = experiment: Antiinflammatory activity in mouse RAW264.7 cells assessed as inhibition of LPS-induced IL-1beta production at 5 to 10 uM pretreated for 2 hrs followed by LPS challenge and measured after 12 hrs by ELISA; type: functional, cell-based
RAW264.7 [8] = experiment: Antiinflammatory activity in mouse RAW264.7 cells assessed as increase in LPS-induced HO-1 protein level pretreated for 2 hrs followed by LPS challenge and measured after 12 hrs by Western blot analysis; type: functional, cell-based
[9] = target: Transcription factor p65 (Mus musculus) (UniProt Q04207); experiment: Inhibition of LPS-induced NF-kappaB p65 translocation in mouse RAW264.7 cells at 5 to 10 uM pretreated for 2 hrs followed by LPS challenge measured after 12 hrs by DAPI staining based fluorescence microscopic analysis; type: cell-based
Transcription factor p65 (Mus musculus), sequence (Q04207 whole entry): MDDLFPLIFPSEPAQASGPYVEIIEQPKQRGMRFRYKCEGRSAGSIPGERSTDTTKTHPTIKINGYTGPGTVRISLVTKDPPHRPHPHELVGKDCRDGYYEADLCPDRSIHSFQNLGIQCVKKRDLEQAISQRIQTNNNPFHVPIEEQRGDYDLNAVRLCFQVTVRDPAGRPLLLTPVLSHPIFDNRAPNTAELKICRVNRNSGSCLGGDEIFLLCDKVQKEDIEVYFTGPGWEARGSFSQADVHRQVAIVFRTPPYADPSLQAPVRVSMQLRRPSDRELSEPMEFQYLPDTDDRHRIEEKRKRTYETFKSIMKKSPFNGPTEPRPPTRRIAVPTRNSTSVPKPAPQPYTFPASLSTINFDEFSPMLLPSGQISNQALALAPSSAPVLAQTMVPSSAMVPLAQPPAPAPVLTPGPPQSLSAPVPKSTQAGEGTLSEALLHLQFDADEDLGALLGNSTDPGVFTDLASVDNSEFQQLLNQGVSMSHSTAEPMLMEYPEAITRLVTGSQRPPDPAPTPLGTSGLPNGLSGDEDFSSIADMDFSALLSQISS

RAW264.7 [10] = experiment: Antiinflammatory activity in mouse RAW264.7 cells assessed as inhibition of LPS-induced MIP-1beta production at 5 to 10 uM pretreated for 2 hrs followed by LPS challenge and measured after 12 hrs by ELISA; type: functional, cell-based

Row | Structure (SMILES) | IC50 (RAW264.7 [2]) [µM] | IC50 (SW1990) [µM] | IC50 (A549) [µM] | IC50 (MDA-MB-231) [µM] | Activity (RAW264.7 [1]) | IC50 (HepG2) [µM] | Activity (RAW264.7 [3]) | IC50 [4] [µM] | inhibition (RAW264.7 [5]) | inhibition (RAW264.7 [6]) | inhibition (RAW264.7 [7]) | Activity (RAW264.7 [8]) | inhibition [9] | inhibition (RAW264.7 [10])
1 | CC(C)=C[C@H]1C[C@H](C)[C@]2(CC[C@]3(C)C[C@H]4[C@H](CC[C@@]4(C)O)/C(CO)=C\C[C@H]32)O1 | > 40 | > 40 | > 40 | > 40 | Non-Toxic | > 40 | – | – | – | – | – | – | – | –
2 | CC(C)=C[C@H]1C[C@H](C)[C@]2(CC[C@]3(C)C[C@@H]4C(CO)=CC(=O)[C@H]4/C(C)=C\C[C@H]32)O1 | > 40 | > 40 | > 40 | > 40 | Non-Toxic | > 40 | – | – | – | – | – | – | – | –
3 | CC1=CC(=O)[C@H]2/C(C)=C\C[C@@H]3[C@](C)(CC[C@@]34O[C@@H](/C=C(\C)CO)C[C@@H]4C)C[C@H]12 | > 40 | > 40 | > 40 | > 40 | Non-Toxic | > 40 | – | – | – | – | – | – | – | –
4 | CC(C)=C[C@H]1C[C@H](C)[C@]2(CC[C@]3(C)C[C@@H]4C(C)=CC(=O)[C@H]4/C(C=O)=C\C[C@H]32)O1 [3-ANHYDRO-6-EPI-OPHIOBOLIN A] | 5.1 | > 40 | > 40 | > 40 | Non-Toxic | > 40 | Active | 8.4 | Active | Active | Active | Dose-dependent effect | Active | Active
5 | COc1ccc2c(c1)c(CC(=O)O)c(C)n2C(=O)c1ccc(Cl)cc1 [INDOMETHACIN] | 8.8 | – | – | – | – | – | – | – | – | – | – | – | – | –
6 | CC(C)=C[C@H]1C[C@H](C)[C@]2(CC[C@]3(C)C[C@@H]4C(C)=CC(=O)[C@H]4/C(C(=O)O)=C\C[C@H]32)O1 | > 40 | > 40 | > 40 | > 40 | Non-Toxic | > 40 | – | – | – | – | – | – | – | –
7 | CC1=CC(=O)/C2=C(\CO)CC[C@@H]3[C@](C)(CC[C@@]34O[C@@H](/C=C(\C)CO)C[C@@H]4C)C[C@H]12 | > 40 | > 40 | > 40 | > 40 | Non-Toxic | > 40 | – | – | – | – | – | – | – | –
8 | CC(C)=C[C@H]1C[C@H](C)[C@]2(CC[C@]3(C)C[C@@H]4C(C)=CC(=O)/C4=C(\C(=O)O)[C@@H](O)C[C@H]32)O1 | > 40 | > 40 | > 40 | > 40 | Non-Toxic | > 40 | – | – | – | – | – | – | – | –
9 | CC1=CC(=O)[C@H]2/C(C=O)=C\C[C@@H]3[C@](C)(CC[C@@]34O[C@@H](/C=C(\C)CO)C[C@@H]4C)C[C@H]12 | 19 | > 40 | > 40 | > 40 | Non-Toxic | > 40 | – | – | – | – | – | – | – | –

Continued, in another order:

Row | IC50 (RAW264.7 [2]) [µM] | Structure (SMILES) | IC50 (SW1990) [µM] | IC50 (A549) [µM] | IC50 (MDA-MB-231) [µM] | Activity (RAW264.7 [1]) | IC50 (HepG2) [µM] | Activity (RAW264.7 [3]) | IC50 [4] [µM] | inhibition (RAW264.7 [5]) | inhibition (RAW264.7 [6]) | inhibition (RAW264.7 [7]) | Activity (RAW264.7 [8]) | inhibition [9] | inhibition (RAW264.7 [10])
10 | 20 | CC(C)=C[C@H]1C[C@H](C)[C@]2(CC[C@]3(C)C[C@@H]4C(C)=CC(=O)/C4=C(\CO)[C@H](O)C[C@H]32)O1 | > 40 | > 40 | > 40 | Non-Toxic | > 40 | – | – | – | – | – | – | – | –
11 | > 40 | CC1=CC(=O)/C2=C(\CO)[C@H](O)C[C@@H]3[C@](C)(CC[C@@]34O[C@@H](/C=C(\C)CO)C[C@@H]4C)C[C@H]12 | > 40 | > 40 | > 40 | Non-Toxic | > 40 | – | – | – | – | – | – | – | –
12 | 6.7 | CC(C)=C[C@H]1C[C@H](C)[C@]2(CC[C@]3(C)C[C@@H]4C(C)=CC(=O)/C4=C(\CO)[C@@H](O)C[C@H]32)O1 | > 40 | > 40 | > 40 | Non-Toxic | > 40 | – | – | – | – | – | – | – | –
13 | 19 | CC1=CC(=O)/C2=C(\CO)[C@@H](O)C[C@@H]3[C@](C)(CC[C@@]34O[C@@H](/C=C(\C)CO)C[C@@H]4C)C[C@H]12 | > 40 | > 40 | > 40 | Non-Toxic | > 40 | – | – | – | – | – | – | – | –
